Data on 16 compounds can be found in US20140315876A1, “BETA-LACTAMASE INHIBITORS” (priority 2013, published 2014).

For test [1], the system named is bacterial strains that express the class D cephalosporinase OXA-15. The experiment in a line: Synergy MIC / standard BLI potentiation MIC assay, strains expressing OXA-15. It is filed as cell-based, E. coli. The settings on record: in the presence of a β-lactam; comparator Avibactam (comparator compound CCC). As for the experimental part: (§1) The experimental protocol was performed according to Clinical and Laboratory Standards Institute (CLSI) guidelines with modifications as described below (CLSI guidelines can be derived from the CLSI document M07-A9 published in January 2012: “Methods for Dilution Antimicrobial Susceptibility Tests for Bacteria That Grow Aerobically; Approved Standard-Ninth Edition”).
(§2) To prepare for MIC testing, frozen glycerol stocks of clinical isolates (Klebsiella pneumoniae, Eschericia coli, Enterobacter spp, Citrobacter spp, or Pseudomonas aeruginosa) were used to streak for isolated colonies on rich, non-selective, tryptic soy agar containing 5% sheep's blood (TSAB). Frozen glycerol stocks of laboratory engineered, isogenic E. coli strains, which contain cloned β-lactamase expressing plasmids were used to streak for isolated colonies on rich, selective LB agar supplemented with 25 μg/mL tetracycline to maintain the plasmid. All strains were incubated at 37° C. for 18-24 hrs.
(§3) On the day of testing, primary cultures were started by scraping off 5-10 colonies from the TSAB plates containing clinical strains or the tetracycline supplemented LB plates containing engineered strains. The clinical strain material was suspended in ˜5 mL of cation adjusted Mueller Hinton Broth (CAMHB) in 14 mL culture tubes. The engineered strain material was suspended in CAMHB (supplemented with 25 μg/mL tetracycline) in 14 mL culture tubes. All strains were incubated at 37° C. with aeration (200 rpm) for ˜2 hrs until the optical density at 600 nm (OD600) was ≧0.1.
(§4) The two compound components of the assay were each diluted in CAMHB and added to the 96-well broth microdilution assay plates. 50 μL of the β-lactam was added to each well of the assay plate in 2-fold dilutions with final concentrations ranging from 128 to 0.13 μg/mL. 25 μL of the BLI compound was added to all wells in the broth microdilution plates at a final concentration of 4 μg/mL. Inoculum cultures were prepared by standardizing the primary cultures to OD600=0.1 and then adding 20 μL of the adjusted primary culture per 1 mL CAMHB for clinical strains or CAMHB (supplemented with tetracycline at 100 μg/mL) for engineered strains, so that the final inoculum density was ˜10^5 colony forming units per milliliter. Diluted inoculum cultures were used to inoculate 25 μL per well in 96-well broth microdilution assay plates. The final volume of each well was 100 μL and contained a β-lactam at different concentrations, a BLI compound at 4 μg/mL concentration, the bacterial culture at an OD600 of approximately 0.001 and when necessary tetracycline at 25 μg/mL.
(§5) Plates were incubated for 18-20 hours at 37° C. with aeration (200 rpm). Following incubation, growth was confirmed visually placing plates over a viewing apparatus (stand with a mirror underneath) and then OD600 was measured using a SpectraMax 340PC384 plate reader (Molecular Devices, Sunnyvale, Calif.). Growth was defined as turbidity that could be detected with the naked eye or achieving minimum OD600 of 0.1. MIC values were defined as the lowest concentration producing no visible turbidity.
(§6) The synergy MIC (sMIC) assay determines the concentration of the BLI required to potentiate the activity of a fixed concentration of a β-lactam antibiotic against β-lactamase producing bacterial strains. The experimental protocol was performed according to Clinical and Laboratory Standards Institute (CLSI) guidelines with modifications as described below (CLSI guidelines can be derived from the CLSI document M07-A9 published in January 2012: “Methods for Dilution Antimicrobial Susceptibility Tests for Bacteria That Grow Aerobically; Approved Standard-Ninth Edition”). […]

For test [2], the system named is bacterial strains that express KPC β-lactamases. The experiment in a line: Synergy MIC / standard BLI potentiation MIC assay, strains expressing KPC β-lactamases. It is filed as cell-based. The settings on record: more active for at least one KPC strain and/or better spectrum of activity than Avibactam; in the presence of a β-lactam. As for the experimental part:
as §1, §2, §3, §4, §5, §6

Counter-ions that a name gives are not always drawn.

`O=C1N2C[C@@H](CC[C@H]2c2nnco2)N1OS(=O)(=O)O` [Compound 701, (2S,5R)-2-(1,3,4-oxadiazol-2-yl)-7-oxo-1,6-diazabicyclo[3.2.1]octan-6-yl hydrogen sulfate]: the “activity against bacterial strains that express the class D cephalosporinase OXA-15, compared with Avibactam” value in test [1] is listed as “more active than Avibactam”. The “activity and/or spectrum of activity against bacterial strains that express KPC β-lactamases, compared with Avibactam” value in test [2] is “more active than Avibactam”.

For the compound `NCc1nnc([C@@H]2CC[C@@H]3CN2C(=O)N3OS(=O)(=O)O)o1` [Compound 702, (2S,5R)-2-(5-(aminomethyl)-1,3,4-oxadiazol-2-yl)-7-oxo-1,6-diazabicyclo[3.2.1]octan-6-yl hydrogen sulfate], in test [1], the “activity against bacterial strains that express the class D cephalosporinase OXA-15, compared with Avibactam” value is recorded as “more active than Avibactam”. In test [2], the “activity and/or spectrum of activity against bacterial strains that express KPC β-lactamases, compared with Avibactam” value is listed as “more active than Avibactam”.

Regarding `NCCc1nnc([C@@H]2CC[C@@H]3CN2C(=O)N3OS(=O)(=O)O)o1` [Compound 703, (2S,5R)-2-(5-(2-aminoethyl)-1,3,4-oxadiazol-2-yl)-7-oxo-1,6-diazabicyclo[3.2.1]octan-6-yl hydrogen sulfate], the “activity against bacterial strains that express the class D cephalosporinase OXA-15, compared with Avibactam” value in test [1] was “more active than Avibactam”. Further, in test [2], the “activity and/or spectrum of activity against bacterial strains that express KPC β-lactamases, compared with Avibactam” value is on record as “more active than Avibactam”.

On to `N=C(N)NCCc1nnc([C@@H]2CC[C@@H]3CN2C(=O)N3OS(=O)(=O)O)o1` [Compound 705, (2S,5R)-2-(5-(2-guanidinoethyl)-1,3,4-oxadiazol-2-yl)-7-oxo-1,6-diazabicyclo[3.2.1]octan-6-yl hydrogen sulfate], for which the “activity against bacterial strains that express the class D cephalosporinase OXA-15, compared with Avibactam” value in test [1] is on record as “more active than Avibactam”. In addition, in test [2], the “activity and/or spectrum of activity against bacterial strains that express KPC β-lactamases, compared with Avibactam” value was “more active than Avibactam”.

Consider `NC(=O)c1nnc([C@@H]2CC[C@@H]3CN2C(=O)N3OS(=O)(=O)O)o1` [Compound 706, (2S,5R)-2-(5-carbamoyl-1,3,4-oxadiazol-2-yl)-7-oxo-1,6-diaza-bicyclo[3.2.1]octan-6-yl hydrogen sulfate], for which the “activity against bacterial strains that express the class D cephalosporinase OXA-15, compared with Avibactam” value in test [1] is “more active than Avibactam”. Moreover, the “activity and/or spectrum of activity against bacterial strains that express KPC β-lactamases, compared with Avibactam” value in test [2] is given as “more active than Avibactam”.

Consider `O=C1N2C[C@@H](CC[C@H]2c2nnc(C3CNC3)o2)N1OS(=O)(=O)O` [Compound 708, (2S,5R)-2-(5-(azetidin-3-yl)-1,3,4-oxadiazol-2-yl)-7-oxo-1,6-diazabicyclo[3.2.1]octan-6-yl hydrogen sulfate], for which the “activity against bacterial strains that express the class D cephalosporinase OXA-15, compared with Avibactam” value in test [1] was “more active than Avibactam”. Further, the “activity and/or spectrum of activity against bacterial strains that express KPC β-lactamases, compared with Avibactam” value in test [2] was “more active than Avibactam”.

As for `N=C(N)N1CC(c2nnc([C@@H]3CC[C@@H]4CN3C(=O)N4OS(=O)(=O)O)o2)C1` [Compound 709, (2S,5R)-2-(5-(1-carbamimidoylazetidin-3-yl)-1,3,4-oxadiazol-2-yl)-7-oxo-1,6-diazabicyclo[3.2.1]octan-6-yl hydrogen sulfate], the “activity against bacterial strains that express the class D cephalosporinase OXA-15, compared with Avibactam” value in test [1] is recorded as “more active than Avibactam”. The “activity and/or spectrum of activity against bacterial strains that express KPC β-lactamases, compared with Avibactam” value in test [2] is “more active than Avibactam”.

Take `O=C1N2C[C@@H](CC[C@H]2c2nnc(C3CCNC3)o2)N1OS(=O)(=O)O` (stereo partly drawn) [Compound 710, (2S,5R)-7-oxo-2-(5-(pyrrolidin-3-yl)-1,3,4-oxadiazol-2-yl)-1,6-diazabicyclo[3.2.1]octan-6-yl hydrogen sulfate]: in test [1], the “activity against bacterial strains that express the class D cephalosporinase OXA-15, compared with Avibactam” value is “more active than Avibactam”. The “activity and/or spectrum of activity against bacterial strains that express KPC β-lactamases, compared with Avibactam” value in test [2] is reported as “more active than Avibactam”.

As for `O=C1N2C[C@@H](CC[C@H]2c2nnc(C3CCNCC3)o2)N1OS(=O)(=O)O` [Compound 711, (2S,5R)-7-oxo-2-(5-(piperidin-4-yl)-1,3,4-oxadiazol-2-yl)-1,6-diazabicyclo[3.2.1]octan-6-yl hydrogen sulfate], the “activity against bacterial strains that express the class D cephalosporinase OXA-15, compared with Avibactam” value in test [1] is “more active than Avibactam”. In test [2], the “activity and/or spectrum of activity against bacterial strains that express KPC β-lactamases, compared with Avibactam” value is listed as “more active than Avibactam”.

Take `NCCCc1nnc([C@@H]2CC[C@@H]3CN2C(=O)N3OS(=O)(=O)O)o1` [Compound 720, (2S,5R)-2-(5-(3-aminopropyl)-1,3,4-oxadiazol-2-yl)-7-oxo-1,6-diazabicyclo[3.2.1]octan-6-yl hydrogen sulfate]: in test [1], the “activity against bacterial strains that express the class D cephalosporinase OXA-15, compared with Avibactam” value is reported as “more active than Avibactam”. Also, in test [2], the “activity and/or spectrum of activity against bacterial strains that express KPC β-lactamases, compared with Avibactam” value was “more active than Avibactam”.

Take `N=C(N)NCc1nnc([C@@H]2CC[C@@H]3CN2C(=O)N3OS(=O)(=O)O)s1` [Compound 721, (2S,5R)-2-(5-(guanidinomethyl)-1,3,4-thiadiazol-2-yl)-7-oxo-1,6-diazabicyclo[3.2.1]octan-6-yl hydrogen sulfate]: the “activity against bacterial strains that express the class D cephalosporinase OXA-15, compared with Avibactam” value in test [1] is “more active than Avibactam”. Moreover, the “activity and/or spectrum of activity against bacterial strains that express KPC β-lactamases, compared with Avibactam” value in test [2] is on record as “more active than Avibactam”.

With `CNCCc1nnc([C@@H]2CC[C@@H]3CN2C(=O)N3OS(=O)(=O)O)o1` [Compound 722, (2S,5R)-2-(5-(2-(methylamino)ethyl)-1,3,4-oxadiazol-2-yl)-7-oxo-1,6-diazabicyclo[3.2.1]octan-6-yl hydrogen sulfate], the “activity against bacterial strains that express the class D cephalosporinase OXA-15, compared with Avibactam” value in test [1] is recorded as “more active than Avibactam”. Moreover, the “activity and/or spectrum of activity against bacterial strains that express KPC β-lactamases, compared with Avibactam” value in test [2] was “more active than Avibactam”.

As for `N=C(N)NCC1(c2nnc([C@@H]3CC[C@@H]4CN3C(=O)N4OS(=O)(=O)O)o2)CC1` [Compound 723, (2S,5R)-2-(5-(1-(guanidinomethyl)cyclopropyl)-1,3,4-oxadiazol-2-yl)-7-oxo-1,6-diazabicyclo[3.2.1]octan-6-yl hydrogen sulfate], the “activity against bacterial strains that express the class D cephalosporinase OXA-15, compared with Avibactam” value in test [1] is given as “more active than Avibactam”. In test [2], the “activity and/or spectrum of activity against bacterial strains that express KPC β-lactamases, compared with Avibactam” value is on record as “more active than Avibactam”.

In the case of `NC1(Cc2nnc([C@@H]3CC[C@@H]4CN3C(=O)N4OS(=O)(=O)O)o2)CC1` [Compound 724, (2S,5R)-2-(5-((1-aminocyclopropyl)methyl)-1,3,4-oxadiazol-2-yl)-7-oxo-1,6-diazabicyclo[3.2.1]octan-6-yl hydrogen sulfate], the “activity against bacterial strains that express the class D cephalosporinase OXA-15, compared with Avibactam” value in test [1] is given as “more active than Avibactam”. The “activity and/or spectrum of activity against bacterial strains that express KPC β-lactamases, compared with Avibactam” value in test [2] is listed as “more active than Avibactam”.

For `O=C1N2C[C@@H](CC[C@H]2c2nnc(CNC3CNC3)o2)N1OS(=O)(=O)O` [Compound 726, (2S,5R)-2-(5-((azetidin-3-ylamino)methyl)-1,3,4-oxadiazol-2-yl)-7-oxo-1,6-diazabicyclo[3.2.1]octan-6-yl hydrogen sulfate], the “activity against bacterial strains that express the class D cephalosporinase OXA-15, compared with Avibactam” value in test [1] is “more active than Avibactam”. In addition, the “activity and/or spectrum of activity against bacterial strains that express KPC β-lactamases, compared with Avibactam” value in test [2] was “more active than Avibactam”.

`NC1CCN(CCc2nnc([C@@H]3CC[C@@H]4CN3C(=O)N4OS(=O)(=O)O)o2)CC1` [Compound 775, (2S,5R)-2-(5-(2-(4-aminopiperidin-1-yl)ethyl)-1,3,4-oxadiazol-2-yl)-7-oxo-1,6-diazabicyclo[3.2.1]octan-6-yl hydrogen sulfate]: the “activity and/or spectrum of activity against bacterial strains that express KPC β-lactamases, compared with Avibactam” value in test [2] is on record as “more active than Avibactam”.
